Assay results: patent publication USRE38257E1, “Piperdine derivatives and hypotensives containing the same” (Ajinomoto Co., Inc., priority 1988, dated 2003)

Tested on: male spontaneously hypertensive rats
Assay: Decrease in systolic blood pressure in spontaneously hypertensive rats after intravenous bolus injection, indirect (tail-cuff) method
Format: in vivo, rat
Conditions: for Decrease in systolic blood pressure (mmHg) time after administration (hour) 0.5: 0.5 hour after administration; for Decrease in systolic blood pressure (mmHg) time after administration (hour) 4: 4 hours after administration
Experimental: As test animals, four male spontaneously hypertensive rats (weight 400 to 440 g) that were sufficiently adapted for feeding and in which hypertension was confirmed were used.
Physiological saline aqueous solution containing 2.5% Nicolle and 2.5% ethanol of sample was intravenously administered by bolus injection at a dose of 1 ml per 1 kg of body weight. Systolic blood pressure after administration was measured by the indirect (tail-cuff) method.

Molecule	Decrease in systolic blood pressure (mmHg) time after administration (hour) 0.5 (dose 10 mg/kg i.v. bolus) [mmHg]	Decrease in systolic blood pressure (mmHg) time after administration (hour) 4 (dose 10 mg/kg i.v. bolus) [mmHg]	Decrease in systolic blood pressure (mmHg) time after administration (hour) 0.5 (dose 3 mg/kg i.v. bolus) [mmHg]	Decrease in systolic blood pressure (mmHg) time after administration (hour) 4 (dose 3 mg/kg i.v. bolus) [mmHg]
C1=Cc2ccccc2C(=C2CCN(CCCCCCc3ccccc3)CC2)c2ccccc21.Cl [Example 17, 6-(4-(5H-Dibenzo[a,d]cyclohepten-5-ylidene)-1-piperidinyl)-1-phenylhexane hydrochloride]	−84	−16	–	–
CCCCCCCCCCCN1CCC(=C2c3ccccc3C=Cc3ccccc32)CC1.Cl [Example 136, 4-(5H-Dibenzo[a,d]cyclohepten-5-ylidene)-1-undecylpiperidine hydrochloride]	−100	−40	–	–
CCCCCCCN1CCC(=C2c3ccccc3C=Cc3ccccc32)CC1.Cl [Example 134, 4-(5H-Dibenzo[a,d]cyclohepten-5-ylidene)-1-heptylpiperidine hydrochloride]	−115	−30	–	–
Cl.N#CC(CCCN1CCC(=C2c3ccccc3C=Cc3ccccc32)CC1)c1cccc(C(F)(F)F)c1 (centres unmarked) [Example 59, 5-(4-(5H-Dibenzo[a,d]cyclohepten-5-ylidene)-1-piperidinyl)-2-(3-trifluoromethylphenyl)valeronitrile hydrochloride]	−87	−21	–	–
COC(=O)C1(CCCN2CCC(=C3c4ccccc4C=Cc4ccccc43)CC2)CCCCC1.Cl [Example 314, 1-(3-(4-(5H-Dibenzo[a,d]cyclohepten-5-ylidene)-1-piperidinyl)-1-propyl)-1-methoxycarbonylcyclohexane hydrochloride]	−61	−11	–	–
CCCCCCN1CCC(=C2c3ccccc3C=Cc3ccccc32)CC1.Cl [Example 1, 4-(5H-Dibenzo[a,d]cyclohepten-5-ylidene)-1-hexylpiperidine hydrochloride]	−67	1	–	–
Cl.O=C1CCCC(CCCCN2CCC(=C3c4ccccc4C=Cc4ccccc43)CC2)C1 (centres unmarked) [Example 301, 3-(4-(4-(5H-Dibenzo[a,d]cyclohepten-5-ylidene)-1-piperidinyl)-1-butyl)cyclohexanoe hydrochloride]	−100	−12	–	–
CC(=O)Nc1ccc(C=CCN2CCC(=C3c4ccccc4CCc4ccccc43)CC2)cc1.Cl.Cl [Example 352, 1-(4-Acetylaminocinnamyl)-4-(10,11 dihydro-5H-Dibenzo[a,d]cyclohepten-5-ylidene)piperidine dihydrochloride]	–	–	−93	−60
COc1cc(C=CCN2CCC(=C3c4ccccc4C=Cc4ccccc43)CC2)ccc1O.Cl [Example 365, 4-(5H-Dibenzo[a,d]cyclohepten-5-ylidene)-1-(4-hydroxy-3-methoxycinnamyl)piperidine hydrochloridine]	–	–	−80	−56
C1=Cc2ccccc2C(=C2CCN(CCCCCCCCC3CCCCC3)CC2)c2ccccc21.Cl [Example 156, 1-Cyclohexyl-8-(4-(5H-dibenzo[a,d]cyclohepten-5-ylidene)-1-piperidinyl)octane hydrochloride]	−110	−42	–	–
C1=Cc2ccccc2C(=C2CCN(CCc3ccccc3)CC2)c2ccccc21.Cl [Example 13, 2-(4-(5H-Dibenzo[a,d]cyclohepten-5-ylidene)-1-piperidinyl)-1-phenylethane hydrochloride]	−47	4	–	–
5-(4-(5H-Dibenzo[a,d]cyclohepten-5-ylidene)-1-piperidinyl)-2-phenylvaleronitrile hydrochloride [Example 121]	−42	−19	–	–
Cl.O=C(CCN1CCC(=C2c3ccccc3C=Cc3ccccc32)CC1)NC1CCCCC1 [Example 226, N-(3,(4-(5H-Dibenzo[a,d]cyclohepten-5-ylidene)-1-piperidinyl)propanoyl)cyclohexylamine hydrochloride]	−131	−16	–	–
COCC(=O)Oc1ccc(C=CCN2CCC(=C3c4ccccc4C=Cc4ccccc43)CC2)cc1.Cl [Example 383, 4-(5H-Dibenzo[a,d]cyclohepten-5-ylidene)-1-(4-(2-methoxyacetoxy)cinnamyl)piperidine hydrochloride]	–	–	−112	−86
CC(CC(=O)c1ccccc1)N1CCC(=C2c3ccccc3C=Cc3ccccc32)CC1.Cl (centres unmarked) [Example 100, 3-(4-(5H-Dibenzo[a,d]cyclohepten-5-ylidene)-1-piperidinyl)butyrophenone hydrochloride]	−35	−5	–	–
CC(=O)Nc1cccc2c1CC(CN1CCC(=C3c4ccccc4C=Cc4ccccc43)CC1)C2.Cl (centres unmarked) [Example 331, 4′Acetylamino-2(4-(5H-Dibenzo[a,d]cyclohepten-5-ylidene)-1-Piperidinyl)methylindan hydrochloride]	−62	−14	–	–
C1=Cc2ccccc2C(=C2CCN(Cc3ccc4ccccc4c3)CC2)c2ccccc21.Cl [Example 212, 4-(5H-Dibenzo[a,d]cyclohepten-5-ylidene)-1-(2-naphthylmethyl)piperidine hydrochloride]	−155	–	–	–
COc1ccccc1CN1CCC(=C2c3ccccc3C=Cc3ccccc32)CC1.Cl [Example 117, 4-(5H-Dibenzo[a,d]cyclohepten-5-ylidene)-1-(2-methoxybenzyl)piperidine hydrochloride]	−143	−25	–	–
3-(4-(5H-Dibenzo[a,d]cyclohepten-5-ylidene)-1-piperidinyl)-1-(2-pyridyl)-1-propane hydrochloride [Example 284]	–	–	−151	−40
C1=Cc2ccccc2C(=C2CCN(CCCc3ccccc3)CC2)c2ccccc21.Cl [Example 14, 3-(4-(5H-Dibenzo[a,d]cyclohepten-5-ylidene)-1-piperidinyl)-1-phenylpropane hydrochloride]	−105	−10	–	–
O=C(C1CCc2ccccc2C1)N1CCC(=C2c3ccccc3C=Cc3ccccc32)CC1 (centres unmarked) [Example 224, 4-(5H-Dibenzo[a,d]cyclohepten-5-ylidene)-1-(1,2,3,4-tetrahydro-2-naphthoyl)piperidine]	−69	−61	–	–
